Reference: patent US8192962B2, “Processes for detecting toxic substances” (Daikin Industries, Ltd., priority 2001, dated 2012)

Test system: Metabolism protein genes
Experiment: DNA chip mRNA expression in yeast, metabolism protein genes (Table 7)
Type: cell-based, Saccharomyces cerevisiae S288C
How it was run: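 Ratios compare mRNA levels in stressed and control S. cerevisiae. Each toxicant was applied for two hours to log-phase cultures at 25° C. at a sub-lethal, growth-inhibiting level; fluorescent cDNA (Cy3- or Cy5-dUTP) was hybridized to a genome-wide yeast chip for over 12 h at 65° C.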

Compound: O=[N+]([O-])c1cc[n+]([O-])c2ccccc12 [(5), 4-nitroquinolin-N-oxide]
- The level of expressed mRNA in the presence of chemical substance/The level of expressed mRNA in the absence of chemical substance (yeast gene YJR148W): 0.6
- The level of expressed mRNA in the presence of chemical substance/The level of expressed mRNA in the absence of chemical substance (yeast gene YJR155W): 0.7
- The level of expressed mRNA in the presence of chemical substance/The level of expressed mRNA in the absence of chemical substance (yeast gene YKL035W): 0.8
- level of expressed mRNA in the presence/in the absence of chemical substance (yeast gene YKL060C): 1.6
- The level of expressed mRNA in the presence of chemical substance/The level of expressed mRNA in the absence of chemical substance (yeast gene YKL091C): 1.0
- The level of expressed mRNA in the presence of chemical substance/The level of expressed mRNA in the absence of chemical substance (yeast gene YKL104C): 1.4
- level of expressed mRNA in the presence/in the absence of chemical substance (yeast gene YKL148C): 0.8
- The level of expressed mRNA in the presence of chemical substance/The level of expressed mRNA in the absence of chemical substance (yeast gene YKL152C): 1.3
- level of expressed mRNA in the presence/in the absence of chemical substance (yeast gene YKL157W): 1.5
- The level of expressed mRNA in the presence of chemical substance/The level of expressed mRNA in the absence of chemical substance (yeast gene YKL213C): 0.7
- The level of expressed mRNA in the presence of chemical substance/The level of expressed mRNA in the absence of chemical substance (yeast gene YKL215C): 1.0
- level of expressed mRNA in the presence/in the absence of chemical substance (yeast gene YKR034W): 0.9
- The level of expressed mRNA in the presence of chemical substance/The level of expressed mRNA in the absence of chemical substance (yeast gene YKR039W): 1.0
- The level of expressed mRNA in the presence of chemical substance/The level of expressed mRNA in the absence of chemical substance (yeast gene YLL058W): 0.8
- level of expressed mRNA in the presence/in the absence of chemical substance (yeast gene YLR006C): 1.6
- level of expressed mRNA in the presence/in the absence of chemical substance (yeast gene YLR044C): 1.7
- level of expressed mRNA in the presence/in the absence of chemical substance (yeast gene YLR056W): 1.6
- level of expressed mRNA in the presence/in the absence of chemical substance (yeast gene YLR058C): 0.7
- level of expressed mRNA in the presence/in the absence of chemical substance (yeast gene YLR081W): 1.0
- level of expressed mRNA in the presence/in the absence of chemical substance (yeast gene YLR089C): 0.8
- The level of expressed mRNA in the presence of chemical substance/The level of expressed mRNA in the absence of chemical substance (yeast gene YLR180W): 0.8
- level of expressed mRNA in the presence/in the absence of chemical substance (yeast gene YLR284C): 1.6
- The level of expressed mRNA in the presence of chemical substance/The level of expressed mRNA in the absence of chemical substance (yeast gene YLR299W): 0.6
- The level of expressed mRNA in the presence of chemical substance/The level of expressed mRNA in the absence of chemical substance (yeast gene YLR300W): 0.8
- level of expressed mRNA in the presence/in the absence of chemical substance (yeast gene YLR304C): 0.6
- The level of expressed mRNA in the presence of chemical substance/The level of expressed mRNA in the absence of chemical substance (yeast gene YLR307W): 1.4
- The level of expressed mRNA in the presence of chemical substance/The level of expressed mRNA in the absence of chemical substance (yeast gene YLR348C): 0.9
- level of expressed mRNA in the presence/in the absence of chemical substance (yeast gene YLR354C): 1.6
- level of expressed mRNA in the presence/in the absence of chemical substance (yeast gene YLR372W): 1.4
- level of expressed mRNA in the presence/in the absence of chemical substance (yeast gene YML022W): 1.3
- The level of expressed mRNA in the presence of chemical substance/The level of expressed mRNA in the absence of chemical substance (yeast gene YML054C): 1.3
- The level of expressed mRNA in the presence of chemical substance/The level of expressed mRNA in the absence of chemical substance (yeast gene YML070W): 1.4
- The level of expressed mRNA in the presence of chemical substance/The level of expressed mRNA in the absence of chemical substance (yeast gene YML100W): 0.9
- The level of expressed mRNA in the presence of chemical substance/The level of expressed mRNA in the absence of chemical substance (yeast gene YMR008C): 1.1
- level of expressed mRNA in the presence/in the absence of chemical substance (yeast gene YMR011W): 0.9
- level of expressed mRNA in the presence/in the absence of chemical substance (yeast gene YMR015C): 1.7
- The level of expressed mRNA in the presence of chemical substance/The level of expressed mRNA in the absence of chemical substance (yeast gene YMR020W): 1.4
- level of expressed mRNA in the presence/in the absence of chemical substance (yeast gene YMR083W): 1.5
- The level of expressed mRNA in the presence of chemical substance/The level of expressed mRNA in the absence of chemical substance (yeast gene YMR105C): 0.9
- The level of expressed mRNA in the presence of chemical substance/The level of expressed mRNA in the absence of chemical substance (yeast gene YMR189W): 0.4
- level of expressed mRNA in the presence/in the absence of chemical substance (yeast gene YMR205C): 1.2
- level of expressed mRNA in the presence/in the absence of chemical substance (yeast gene YMR261C): 0.9
- The level of expressed mRNA in the presence of chemical substance/The level of expressed mRNA in the absence of chemical substance (yeast gene YMR271C): 1.1
- The level of expressed mRNA in the presence of chemical substance/The level of expressed mRNA in the absence of chemical substance (yeast gene YMR296C): 0.4
- level of expressed mRNA in the presence/in the absence of chemical substance (yeast gene YMR323W): 0.7
- The level of expressed mRNA in the presence of chemical substance/The level of expressed mRNA in the absence of chemical substance (yeast gene YNL012W): 1.3
- level of expressed mRNA in the presence/in the absence of chemical substance (yeast gene YNL025C): 0.7
- The level of expressed mRNA in the presence of chemical substance/The level of expressed mRNA in the absence of chemical substance (yeast gene YNL037C): 1.7
- The level of expressed mRNA in the presence of chemical substance/The level of expressed mRNA in the absence of chemical substance (yeast gene YNL045W): 1.1
- The level of expressed mRNA in the presence of chemical substance/The level of expressed mRNA in the absence of chemical substance (yeast gene YNL104C): 0.8
- The level of expressed mRNA in the presence of chemical substance/The level of expressed mRNA in the absence of chemical substance (yeast gene YNL106C): 0.8
- The level of expressed mRNA in the presence of chemical substance/The level of expressed mRNA in the absence of chemical substance (yeast gene YNL169C): 0.7
- level of expressed mRNA in the presence/in the absence of chemical substance (yeast gene YNL192W): 0.9
- The level of expressed mRNA in the presence of chemical substance/The level of expressed mRNA in the absence of chemical substance (yeast gene YNL231C): 2.1
- The level of expressed mRNA in the presence of chemical substance/The level of expressed mRNA in the absence of chemical substance (yeast gene YNL322C): 1.4
- The level of expressed mRNA in the presence of chemical substance/The level of expressed mRNA in the absence of chemical substance (yeast gene YNL331C): 1.6
- The level of expressed mRNA in the presence of chemical substance/The level of expressed mRNA in the absence of chemical substance (yeast gene YNL332W): 1.6
- The level of expressed mRNA in the presence of chemical substance/The level of expressed mRNA in the absence of chemical substance (yeast gene YNR002C): 1.2
- The level of expressed mRNA in the presence of chemical substance/The level of expressed mRNA in the absence of chemical substance (yeast gene YNR019W): 0.8
- The level of expressed mRNA in the presence of chemical substance/The level of expressed mRNA in the absence of chemical substance (yeast gene YNR033W): 1.3
- The level of expressed mRNA in the presence of chemical substance/The level of expressed mRNA in the absence of chemical substance (yeast gene YNR059W): 1.4
- The level of expressed mRNA in the presence of chemical substance/The level of expressed mRNA in the absence of chemical substance (yeast gene YOL058W): 1.2
- level of expressed mRNA in the presence/in the absence of chemical substance (yeast gene YOL086C): 1.9
- level of expressed mRNA in the presence/in the absence of chemical substance (yeast gene YOL108C): 2.1
- level of expressed mRNA in the presence/in the absence of chemical substance (yeast gene YOL116W): 1.7
- The level of expressed mRNA in the presence of chemical substance/The level of expressed mRNA in the absence of chemical substance (yeast gene YOL126C): 0.7
- The level of expressed mRNA in the presence of chemical substance/The level of expressed mRNA in the absence of chemical substance (yeast gene YOL153C): 1.2
- level of expressed mRNA in the presence/in the absence of chemical substance (yeast gene YOL156W): 1.2
- The level of expressed mRNA in the presence of chemical substance/The level of expressed mRNA in the absence of chemical substance (yeast gene YOL165C): 0.9
- level of expressed mRNA in the presence/in the absence of chemical substance (yeast gene YOR002W): 1.1
- level of expressed mRNA in the presence/in the absence of chemical substance (yeast gene YOR085W): 1.0
- The level of expressed mRNA in the presence of chemical substance/The level of expressed mRNA in the absence of chemical substance (yeast gene YOR099W): 1.5
- level of expressed mRNA in the presence/in the absence of chemical substance (yeast gene YOR103C): 1.5
- level of expressed mRNA in the presence/in the absence of chemical substance (yeast gene YOR108W): 1.1
- level of expressed mRNA in the presence/in the absence of chemical substance (yeast gene YOR128C): 1.1
- The level of expressed mRNA in the presence of chemical substance/The level of expressed mRNA in the absence of chemical substance (yeast gene YOR130C): 1.8
- level of expressed mRNA in the presence/in the absence of chemical substance (yeast gene YOR142W): 1.4
- level of expressed mRNA in the presence/in the absence of chemical substance (yeast gene YOR176W): 1.0
- level of expressed mRNA in the presence/in the absence of chemical substance (yeast gene YOR178C): 1.0
- level of expressed mRNA in the presence/in the absence of chemical substance (yeast gene YOR251C): 0.8
- The level of expressed mRNA in the presence of chemical substance/The level of expressed mRNA in the absence of chemical substance (yeast gene YOR336W): 1.3
- The level of expressed mRNA in the presence of chemical substance/The level of expressed mRNA in the absence of chemical substance (yeast gene YOR347C): 0.7
- level of expressed mRNA in the presence/in the absence of chemical substance (yeast gene YOR348C): 0.9
- The level of expressed mRNA in the presence of chemical substance/The level of expressed mRNA in the absence of chemical substance (yeast gene YPL017C): 1.3
- level of expressed mRNA in the presence/in the absence of chemical substance (yeast gene YPL028W): 1.0
- level of expressed mRNA in the presence/in the absence of chemical substance (yeast gene YPL057C): 1.9
- level of expressed mRNA in the presence/in the absence of chemical substance (yeast gene YPL135W): 1.6
- level of expressed mRNA in the presence/in the absence of chemical substance (yeast gene YPL148C): 1.1
- The level of expressed mRNA in the presence of chemical substance/The level of expressed mRNA in the absence of chemical substance (yeast gene YPR026W): 0.8
- level of expressed mRNA in the presence/in the absence of chemical substance (yeast gene YPR113W): 2.0
- level of expressed mRNA in the presence/in the absence of chemical substance (yeast gene YPR165W): 1.5
- The level of expressed mRNA in the presence of chemical substance/The level of expressed mRNA in the absence of chemical substance (yeast gene YPR167C): 1.4
- level of expressed mRNA in the presence/in the absence of chemical substance (yeast gene YPR183W): 0.9
